# Measured values: ChEMBL document CHEMBL3751845, “Synthesis, molecular docking and biological evaluation of N,N-disubstituted 2-aminothiazolines as a new class of butyrylcholinesterase and carboxylesterase inhibitors” (Bioorg Med Chem, 2016)
# Tests used:
# Liver carboxylesterase [1] = target: T1, Liver carboxylesterase (Sus scrofa, UniProt Q29550); test: Inhibition of porcine liver carboxylesterase using 4-nitrophenol acetate as substrate by spectrophotometric analysis
# T1 sequence (Q29550 whole entry): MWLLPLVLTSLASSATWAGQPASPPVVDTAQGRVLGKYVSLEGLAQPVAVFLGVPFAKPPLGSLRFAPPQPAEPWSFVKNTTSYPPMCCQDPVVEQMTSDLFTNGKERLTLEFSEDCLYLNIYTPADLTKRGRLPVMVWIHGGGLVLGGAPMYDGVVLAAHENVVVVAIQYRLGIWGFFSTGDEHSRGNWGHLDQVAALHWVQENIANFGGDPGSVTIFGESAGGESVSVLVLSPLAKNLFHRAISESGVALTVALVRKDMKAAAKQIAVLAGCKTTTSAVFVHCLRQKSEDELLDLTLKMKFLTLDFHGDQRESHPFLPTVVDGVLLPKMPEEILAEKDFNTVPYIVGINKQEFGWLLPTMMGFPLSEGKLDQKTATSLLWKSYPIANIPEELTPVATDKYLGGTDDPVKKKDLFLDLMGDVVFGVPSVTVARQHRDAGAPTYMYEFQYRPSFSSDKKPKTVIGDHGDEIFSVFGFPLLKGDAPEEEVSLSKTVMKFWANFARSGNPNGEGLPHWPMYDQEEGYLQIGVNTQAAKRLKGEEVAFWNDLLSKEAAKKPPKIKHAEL
# Cholinesterase [2] = target: T2, Cholinesterase (Equus caballus, UniProt P81908); test: Inhibition of equine serum BChE using butyrylthiocholine iodide as substrate preincubated for 10 mins followed by substrate addition by Ellman's method
# T2 sequence (P81908 whole entry): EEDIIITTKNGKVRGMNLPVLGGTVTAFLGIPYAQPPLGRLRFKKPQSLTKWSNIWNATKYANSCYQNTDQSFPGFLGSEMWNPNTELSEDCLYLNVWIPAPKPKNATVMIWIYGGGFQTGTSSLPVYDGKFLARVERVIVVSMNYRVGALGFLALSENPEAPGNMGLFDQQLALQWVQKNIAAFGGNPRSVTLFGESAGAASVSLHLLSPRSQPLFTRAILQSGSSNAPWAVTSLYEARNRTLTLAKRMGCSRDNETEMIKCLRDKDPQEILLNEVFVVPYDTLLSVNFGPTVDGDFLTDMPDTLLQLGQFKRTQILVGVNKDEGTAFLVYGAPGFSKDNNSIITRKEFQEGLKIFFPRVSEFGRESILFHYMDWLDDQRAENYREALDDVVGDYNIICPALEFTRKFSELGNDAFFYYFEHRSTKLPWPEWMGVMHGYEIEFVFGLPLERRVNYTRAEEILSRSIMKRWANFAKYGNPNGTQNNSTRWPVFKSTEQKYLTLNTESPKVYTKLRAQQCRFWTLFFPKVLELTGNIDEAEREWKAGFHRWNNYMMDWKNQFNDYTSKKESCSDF
# Acetylcholinesterase [3] = target: T3, Acetylcholinesterase (Homo sapiens, UniProt P22303)
# T3 sequence (P22303 whole entry): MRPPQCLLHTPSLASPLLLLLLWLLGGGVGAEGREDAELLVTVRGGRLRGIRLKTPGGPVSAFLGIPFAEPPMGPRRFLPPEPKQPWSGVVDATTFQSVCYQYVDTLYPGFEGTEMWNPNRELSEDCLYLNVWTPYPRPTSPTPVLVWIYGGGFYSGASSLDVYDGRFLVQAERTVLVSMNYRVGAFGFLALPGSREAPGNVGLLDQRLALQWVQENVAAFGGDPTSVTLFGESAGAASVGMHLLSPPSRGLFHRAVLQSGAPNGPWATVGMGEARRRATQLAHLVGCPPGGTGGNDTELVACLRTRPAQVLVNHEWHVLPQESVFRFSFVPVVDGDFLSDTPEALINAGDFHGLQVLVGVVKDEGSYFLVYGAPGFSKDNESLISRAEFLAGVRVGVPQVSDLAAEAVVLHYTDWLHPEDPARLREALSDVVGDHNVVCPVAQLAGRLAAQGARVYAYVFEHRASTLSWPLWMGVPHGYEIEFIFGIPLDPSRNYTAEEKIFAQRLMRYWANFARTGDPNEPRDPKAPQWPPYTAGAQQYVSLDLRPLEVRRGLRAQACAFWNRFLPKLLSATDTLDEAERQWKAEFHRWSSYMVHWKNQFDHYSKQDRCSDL
# Description: (§1) Inhibition of human erythrocyte AChE using acetylthiocholine iodide as substrate preincubated for 10 mins followed by substrate addition by Ellman's method
# Liver carboxylesterase [4] = target: T1, Liver carboxylesterase; test: Noncompetitive inhibition of porcine liver carboxylesterase using 4-nitrophenol acetate as substrate assessed as steady state inhibition constant preincubated for 10 mins followed by substrate addition by Lineweaver-Burk double reciprocal plot analysis
# Cholinesterase [5] = target: T2, Cholinesterase; test: Competitive inhibition of equine serum BChE using butyrylthiocholine iodide as substrate assessed as steady state inhibition constant preincubated for 10 mins followed by substrate addition by Lineweaver-Burk double reciprocal plot analysis
# Cholinesterase [6] = target: T2, Cholinesterase; test: Noncompetitive inhibition of equine serum BChE using butyrylthiocholine iodide as substrate assessed as steady state inhibition constant preincubated for 10 mins followed by substrate addition by Lineweaver-Burk double reciprocal plot analysis
# [7] = Cytotoxicity against human fetal MSC assessed as reduction in cell viability at <30 uM after 72 hrs by MTT assay
# Acetylcholinesterase [8] = target: T3, Acetylcholinesterase; remark: listed apart in the source
# Description: as §1
Compound,IC50 (Liver carboxylesterase [1]; read-out: IC50) [µM],IC50 (Cholinesterase [2]) [µM],IC50 (Acetylcholinesterase [3]),Ki (Liver carboxylesterase [4]) [µM],Ki (Cholinesterase [5]) [µM],Ki (Cholinesterase [6]) [µM],Activity [7],IC50 (Liver carboxylesterase [1]),IC50 (Acetylcholinesterase [8]) [µM]
I.ICC1CN=C(Nc2ccc3c(c2)oc2ccccc23)S1 (stereo unspecified),> 100,> 100,Not Active,,,,,,
I.ICC1CN=C(N(Cc2ccccc2)Cc2ccccc2)S1 (stereo unspecified),46,25,Not Active,,,,,,
Br.CC(c1ccccc1)N(Cc1ccccc1)C1=NCC(CBr)S1 (stereo unspecified),> 100,14,Not Active,,,,,,
Br.BrCC1CN=C(N(Cc2ccccc2)Cc2ccccc2)S1 (stereo unspecified),32,26,Not Active,,,,,,
Br.Clc1ccccc1CN(Cc1cccnc1)C1=NCC(CBr)S1 (stereo unspecified),> 100,25,Not Active,,,,,,
CC(C)c1ccc(CN(Cc2ccccc2)C2=NCC(CI)S2)cc1.I (stereo unspecified),2.13,4.14,Not Active,2.09,1.34,7.56,Non-toxic,,
CC(C)(C)c1cc(CN(Cc2ccccc2)C2=NCC(CI)S2)cc(C(C)(C)C)c1O.I (stereo unspecified),,> 100,Not Active,,,,,Not Active,
Br.CC(C)c1ccc(CN(Cc2ccccc2)C2=NCC(CBr)S2)cc1 (stereo unspecified),2.55,11,Not Active,3.54,,,Non-toxic,,
COc1ccc(CN(Cc2ccccc2)C2=NCC(CI)S2)cc1OC (stereo unspecified),> 100,20,,,,,,,> 100
Clc1ccccc1CN(Cc1ccccc1)C1=NCC(CI)S1.I (stereo unspecified),117,44,Not Active,,,,,,
Clc1ccccc1CN(Cc1cccnc1)C1=NCC(CI)S1.I (stereo unspecified),> 100,21,Not Active,,,,,,
I.ICC1CN=C(N(Cc2ccccc2)Cc2ccco2)S1 (stereo unspecified),131,42,Not Active,,,,,,
COc1ccc(CN(Cc2ccccc2)C2=NCC(CI)S2)cc1.I (stereo unspecified),4.66,25,Not Active,7.81,,,Non-toxic,,
Br.COc1ccc(CN(Cc2ccccc2)C2=NCC(CBr)S2)cc1 (stereo unspecified),4.9,34,Not Active,7.37,,,Non-toxic,,
Br.Clc1ccc(CN(Cc2cccnc2)C2=NCC(CBr)S2)cc1 (stereo unspecified),> 100,30,Not Active,,9.51,19.9,Non-toxic,,
Fc1ccc(CN(Cc2ccccc2)C2=NCC(CI)S2)cc1.I (stereo unspecified),80,17,Not Active,,,,,,
Br.CC(C)(C)c1ccc(CN(Cc2ccccc2)C2=NCC(CBr)S2)cc1 (stereo unspecified),0.32,2.34,Not Active,0.44,0.62,,Non-toxic,,
Br.Fc1ccc(CN(Cc2ccccc2)C2=NCC(CBr)S2)cc1 (stereo unspecified),40,38,Not Active,,,,,,
CC(C)(C)c1ccc(CN(Cc2ccccc2)C2=NCC(CI)S2)cc1.I (stereo unspecified),0.22,0.77,Not Active,0.4,0.27,1.2,Non-toxic,,
CC(c1ccccc1)N(Cc1ccccc1)C1=NCC(CI)S1.I (stereo unspecified),19,> 100,Not Active,,,,,,
Clc1ccc(CN(Cc2cccnc2)C2=NCC(CI)S2)cc1.I (stereo unspecified),18,2.47,,,0.67,3.6,Non-toxic,,> 100
